Measured values as given in patent US8466284B2, “Some 2-pyrazinone derivatives and their use as inhibitors of neutrophile elastase” (Astra Zeneca AB, priority 2007, dated 2013).

How the values were obtained:
[1] = Thermal behaviour of the solid (DSC / TGA); assay type: physicochemical; conditions: solid state
Procedure: Using standard methods, for example those described in Höhne, G. W. H. et al (1996), Differential Scanning Calorimetry, Springer, Berlin, the calorimetric response of a test sample to increasing temperature was investigated using a TA Instruments Q2000 Modulated Temperature Differential Scanning Calorimeter (MTDSC). Measurements were performed between 15 and 300° C. using a modulation of ±0.50° C. in intervals of 40 seconds and a ramp rate of 5° C. per minute. Approximately 1 to 5 mg of test sample was placed in aluminium cups with lids (no crimping) under a nitrogen atmosphere.
Gravimetric Analysis (TGA)
The gravimetric response of test samples to increasing temperatures was investigated using a Q500 Thermal Gravimetric Analyser (TGA) (TA Instruments). The samples were heated in a flow of nitrogen gas with a heating rate of 10° C./min.
Approximately 1 to 3 mg of the test sample was placed in the cup and heated to approximately 300° C.

[2] = Humidity interaction (Gravimetrical Vapour Sorption); assay type: physicochemical; conditions: 0 to 80% relative humidity (RH) at 25° C.
Procedure: is The gravimetric responses of test samples to changes in humidity were investigated using a TGA 5000 (TA Instruments) Gravimetrical Vapour Sorption (GVS). The relative humidity (RH) was raised in steps of 5% to 90% RH and lowered back to 0% RH in two cycles. Each level of RH was held until the equilibrium condition (sample weight change<0.01 wt % per 10 minutes) was reached. Measurements were normally made at 25° C. Approximately 5 mg of the test sample was placed in the cup and evaluated. The hygroscopicity was calculated as the relative change in weight of the sample between the two conditions 0% RH and 80% RH during the second cycle.

[3] = molecular target: T1, Human Neutrophil Elastase (HNE) (Homo sapiens, UniProt P08246); test: Human Neutrophil Elastase Quenched-FRET Assay; assay type: biochemical; conditions: 1.7 nM HNE, 100 μM MeOSuc-AAPV-AMC, 15 min pre-incubation, 30 min at room temperature; read-out: Inhibition of Human Neutrophil Elastase IC50
T1 construct: Human Neutrophil Elastase (HNE) purified from serum; purchased Calbiochem 324681; host or cells: purified from serum (natural human source, not recombinant)
T1 sequence (P08246 30-247 limits assumed): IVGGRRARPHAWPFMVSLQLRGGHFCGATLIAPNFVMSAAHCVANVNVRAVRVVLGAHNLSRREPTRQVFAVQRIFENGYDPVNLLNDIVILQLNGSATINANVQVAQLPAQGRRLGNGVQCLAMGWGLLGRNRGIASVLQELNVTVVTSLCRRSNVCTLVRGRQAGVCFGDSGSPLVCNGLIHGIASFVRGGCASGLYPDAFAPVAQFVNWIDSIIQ
Procedure: Human Neutrophil Elastase Quenched-FRET Assay
The assay uses Human Neutrophil Elastase (HNE) purified from serum (Calbiochem art. 324681; Ref. Baugh, R. J. et al., 1976, Biochemistry. 15, 836-841). HNE was stored in 50 mM sodium acetate (NaOAc), 200 mM sodium chloride (NaCl), pH 5.5 with added 30% glycerol at −20° C. The protease substrate used was Elastase Substrate V Fluorogenic, MeOSuc-AAPV-AMC (Calbiochem art. 324740; Ref. Castillo, M. J. et al., 1979, Anal. Biochem. 99, 53-64). The substrate was stored in dimethyl sulphoxide (DMSO) at −20° C. The assay additions were as follows: Test compounds and controls were added to black 96-well flat-bottom plates (Greiner 655076), 1 μL in 100% DMSO, followed by 30 μL HNE in assay buffer with 0.01% Triton (trade mark) X-100 detergent. The assay buffer constitution was: 100 mM Tris(hydroxymethyl)aminomethane (TRIS) (pH 7.5) and 500 mM NaCl. The enzyme and the compounds were incubated at room temperature for 15 minutes. Then 30 μl substrate in assay buffer was added. The assay was incubated for 30 minutes at room temperature. The concentrations of HNE enzyme and substrate during the incubation were 1.7 nM and 100 μM, respectively. The assay was then stopped by adding […] stop solution (140 mM acetic acid, 200 mM sodium monochloroacetate, 60 mM sodium acetate, pH 4.3). Fluorescence was measured on a Wallac 1420 Victor 2 instrument at settings: Excitation 380 nm, Emission 460 nm. IC50 values were determined using Xlfit curve fitting using model 205.

Structure (SMILES)	thermally stable below (no solvent loss nor other thermal event prior to melting) [1]	water uptake (hygroscopicity) [2] [wt %]	IC50 [3] [nM]
Cc1c(-c2ccnn2-c2ccc(C#N)cc2)nc(C(N)=O)c(=O)n1-c1cccc(C(F)(F)F)c1 [Example 1a, 6-[1-(4-Cyanophenyl)-1H-pyrazol-5-yl]-5-methyl-3-oxo-4-[3-(trifluoromethyl)phenyl]-3,4-dihydropyrazine-2-carboxamide Form A]	below 260 °C	< 0.2	–
Cc1c(-c2ccnn2-c2ccc(C#N)cc2)nc(C(N)=O)c(=O)n1-c1cccc(C(F)(F)F)c1 [Example 1 or 1a, 6-[1-(4-Cyanophenyl)-1H-pyrazol-5-yl]-5-methyl-3-oxo-4-[3-(trifluoromethyl)phenyl]-3,4-dihydropyrazine-2-carboxamide]	–	–	2.2
Cc1c(-c2ccnn2-c2ccc(C#N)cc2)nc(C(=O)NC2CC2)c(=O)n1-c1cccc(C#N)c1 [Example 5, 4-(3-Cyanophenyl)-6-[1-(4-cyanophenyl)-1H-pyrazol-5-yl]-N-cyclopropyl-5-methyl-3-oxo-3,4-dihydropyrazine-2-carboxamide]	–	–	4.2
Cc1c(-c2ccnn2-c2ccc(Cl)cn2)nc(C(N)=O)c(=O)n1-c1cccc(C(F)(F)F)c1 [Example 3, 6-[1-(5-Chloropyridin-2-yl)-1H-pyrazol-5-yl]-5-methyl-3-oxo-4-[3-(trifluoromethyl)phenyl]-3,4-dihydropyrazine-2-carboxamide]	–	–	28
Cc1cc(-c2nc(C(N)=O)c(=O)n(-c3cccc(C(F)(F)F)c3)c2C)n(-c2ccc(C#N)cc2)n1 [Example 4, 6-[1-(4-Cyanophenyl)-3-methyl-1H-pyrazol-5-yl]-5-methyl-3-oxo-4-[3-(trifluoromethyl)phenyl]-3,4-dihydropyrazine-2-carboxamide]	–	–	3.5
Cc1c(C2=NC(C)(C)CN2c2ccc(C#N)cc2)nc(C(N)=O)c(=O)n1-c1cccc(C(F)(F)F)c1 [Example 6, 6-(1-(4-Cyanophenyl)-4,4-dimethyl-4,5-dihydro-1H-imidazol-2-yl)-5-methyl-3-oxo-4-(3-(trifluoromethyl)phenyl)-3,4-dihydropyrazine-2-carb oxamide]	–	–	1.4
Cc1c(-c2ccnn2-c2ccc(Cl)cc2)nc(C(N)=O)c(=O)n1-c1cccc(C(F)(F)F)c1 [Example 2, 6-[1-(4-Chlorophenyl)-1H-pyrazol-5-yl]-5-methyl-3-oxo-4-[3-(trifluoromethyl)phenyl]-3,4-dihydropyrazine-2-carboxamide]	–	–	11
